Test results published in US11912663B2, “Multi-targeted tyrosine kinase inhibitors and their pharmaceutical uses” (Shanghai AB PharmaTech Ltd., priority 2021, dated 2024).

Tests used:
[1] = tested on: pancreatic cancer cell line (BXPC3); experiment: tumor cell proliferation inhibition (CTG), pancreatic cancer cell line; format: cell-based; settings: Homo sapiens, BXPC-3, 72 hours
[2] = tested on: lung cancer cell line (A549); experiment: tumor cell proliferation inhibition (CTG), lung cancer cell line; format: cell-based; settings: Homo sapiens, 72 hours
[3] = tested on: kidney cancer cell line (Caki-1); experiment: tumor cell proliferation inhibition (CTG), kidney cancer cell line; format: cell-based; settings: Homo sapiens, 72 hours, read-out: Caki-1 (renal cancer) IC50
[4] = tested on: hepatocellular carcinoma cell line (Hep3B 2.1-7); experiment: tumor cell proliferation inhibition (CTG), hepatocellular carcinoma cell line; format: cell-based; settings: Homo sapiens, 72 hours
[5] = tested on: gastric cancer cell line (SNU16); experiment: tumor cell proliferation inhibition (CTG), gastric cancer cell line; format: cell-based; settings: Homo sapiens, SNU-16, 72 hours, read-out: SUN16 IC50
[6] = tested on: cervical cancer cell lines (Hela); experiment: tumor cell proliferation inhibition (CTG), cervical cancer cell line; format: cell-based; settings: Homo sapiens, 72 hours
[7] = tested on: leukemia cell line (K562); experiment: tumor cell proliferation inhibition (CTG), leukemia cell line; format: cell-based; settings: Homo sapiens, 72 hours
[8] = tested on: prostatic cancer (PC-3); experiment: tumor cell proliferation inhibition (CTG), PC-3; format: cell-based; settings: 72 hours
[9] = molecular target: hERG potassium channels (Homo sapiens (Human), UniProt Q12809); experiment: in vitro inhibitory effect of hERG, whole-cell patch clamp; format: cell-based; settings: whole-cell recording, room temperature
hERG potassium channels, sequence (Q12809 whole entry): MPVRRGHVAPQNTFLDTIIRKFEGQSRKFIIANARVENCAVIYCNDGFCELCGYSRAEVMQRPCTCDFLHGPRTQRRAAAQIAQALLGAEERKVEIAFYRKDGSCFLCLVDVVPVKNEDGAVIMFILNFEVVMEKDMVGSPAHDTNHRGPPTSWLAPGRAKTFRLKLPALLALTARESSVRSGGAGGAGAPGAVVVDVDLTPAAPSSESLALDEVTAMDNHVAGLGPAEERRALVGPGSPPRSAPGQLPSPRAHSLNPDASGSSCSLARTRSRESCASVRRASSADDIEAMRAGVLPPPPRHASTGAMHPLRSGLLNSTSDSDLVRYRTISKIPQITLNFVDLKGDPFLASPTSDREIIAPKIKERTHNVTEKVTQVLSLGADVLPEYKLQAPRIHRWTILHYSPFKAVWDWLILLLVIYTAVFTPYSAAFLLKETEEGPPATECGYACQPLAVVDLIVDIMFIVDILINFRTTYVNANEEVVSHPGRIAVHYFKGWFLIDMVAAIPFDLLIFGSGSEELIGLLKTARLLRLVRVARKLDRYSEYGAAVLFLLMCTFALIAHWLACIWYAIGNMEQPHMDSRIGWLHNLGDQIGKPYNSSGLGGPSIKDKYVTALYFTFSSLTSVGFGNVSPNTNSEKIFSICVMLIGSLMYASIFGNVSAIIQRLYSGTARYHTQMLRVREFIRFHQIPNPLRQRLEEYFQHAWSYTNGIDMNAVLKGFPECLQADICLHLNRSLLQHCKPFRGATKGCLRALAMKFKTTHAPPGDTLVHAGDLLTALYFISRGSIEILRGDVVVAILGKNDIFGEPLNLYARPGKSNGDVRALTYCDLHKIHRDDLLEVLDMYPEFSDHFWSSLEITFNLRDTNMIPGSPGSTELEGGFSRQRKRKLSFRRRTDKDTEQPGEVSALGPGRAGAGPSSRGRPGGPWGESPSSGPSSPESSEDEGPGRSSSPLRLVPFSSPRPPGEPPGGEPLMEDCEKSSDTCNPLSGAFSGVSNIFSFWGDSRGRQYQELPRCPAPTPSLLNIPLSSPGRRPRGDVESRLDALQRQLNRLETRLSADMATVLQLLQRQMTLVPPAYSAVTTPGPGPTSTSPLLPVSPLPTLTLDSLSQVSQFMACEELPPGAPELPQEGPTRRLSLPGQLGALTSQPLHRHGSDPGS

[10] = molecular target: VEGFR1 (FLT1) (Homo sapiens (Human), UniProt P17948); experiment: kinase inhibition, Mobility-Shift Assay; format: biochemical; settings: 278 μM ATP
[11] = molecular target: VEGFR2 (KDR) (Homo sapiens (Human), UniProt P35968); experiment: kinase inhibition, Mobility-Shift Assay; format: biochemical; settings: VEGFR2, 92 μM ATP
VEGFR2 (KDR), sequence (P35968 20-1356): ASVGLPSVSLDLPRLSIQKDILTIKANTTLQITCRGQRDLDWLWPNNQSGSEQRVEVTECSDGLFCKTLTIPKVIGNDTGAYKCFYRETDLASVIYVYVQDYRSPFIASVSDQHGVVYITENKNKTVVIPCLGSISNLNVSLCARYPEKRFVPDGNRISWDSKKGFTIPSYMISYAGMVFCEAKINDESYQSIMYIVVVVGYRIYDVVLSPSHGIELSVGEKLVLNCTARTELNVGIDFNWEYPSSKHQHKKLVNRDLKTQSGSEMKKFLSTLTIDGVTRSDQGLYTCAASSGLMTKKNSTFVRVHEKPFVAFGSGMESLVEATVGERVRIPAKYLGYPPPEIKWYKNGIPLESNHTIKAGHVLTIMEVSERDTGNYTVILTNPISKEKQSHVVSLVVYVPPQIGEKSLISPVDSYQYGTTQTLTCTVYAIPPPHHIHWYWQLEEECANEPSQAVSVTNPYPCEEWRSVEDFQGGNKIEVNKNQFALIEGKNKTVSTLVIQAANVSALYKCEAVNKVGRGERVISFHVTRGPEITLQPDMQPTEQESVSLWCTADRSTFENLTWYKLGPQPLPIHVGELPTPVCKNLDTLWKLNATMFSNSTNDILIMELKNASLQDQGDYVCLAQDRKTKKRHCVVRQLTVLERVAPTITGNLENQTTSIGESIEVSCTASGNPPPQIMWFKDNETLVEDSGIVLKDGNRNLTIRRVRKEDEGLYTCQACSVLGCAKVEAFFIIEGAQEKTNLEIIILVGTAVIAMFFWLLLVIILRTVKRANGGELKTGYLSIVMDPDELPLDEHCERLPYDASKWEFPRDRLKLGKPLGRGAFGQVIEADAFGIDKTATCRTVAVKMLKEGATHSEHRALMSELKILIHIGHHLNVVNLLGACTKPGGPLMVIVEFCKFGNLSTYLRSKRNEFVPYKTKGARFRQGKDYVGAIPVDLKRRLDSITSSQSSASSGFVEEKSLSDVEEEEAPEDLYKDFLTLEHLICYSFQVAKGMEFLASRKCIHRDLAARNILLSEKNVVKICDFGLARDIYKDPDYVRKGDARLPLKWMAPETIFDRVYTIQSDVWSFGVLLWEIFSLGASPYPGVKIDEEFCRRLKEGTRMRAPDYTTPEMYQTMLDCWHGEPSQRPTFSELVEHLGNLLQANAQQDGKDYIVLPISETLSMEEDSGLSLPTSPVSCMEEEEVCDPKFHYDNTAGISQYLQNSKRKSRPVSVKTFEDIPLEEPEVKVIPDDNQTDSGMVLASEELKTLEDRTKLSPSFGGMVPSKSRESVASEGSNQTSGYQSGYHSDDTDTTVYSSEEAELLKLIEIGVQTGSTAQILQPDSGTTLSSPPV

[12] = molecular target: VEGFR3 (FLT4) (Homo sapiens (Human), UniProt P35916); experiment: kinase inhibition, Mobility-Shift Assay; format: biochemical; settings: 84 μM ATP
[13] = molecular target: FGFR2 (Homo sapiens (Human), UniProt P21802); experiment: kinase inhibition, Mobility-Shift Assay; format: biochemical; settings: 1.9 μM ATP
FGFR2, sequence (P21802 22-821): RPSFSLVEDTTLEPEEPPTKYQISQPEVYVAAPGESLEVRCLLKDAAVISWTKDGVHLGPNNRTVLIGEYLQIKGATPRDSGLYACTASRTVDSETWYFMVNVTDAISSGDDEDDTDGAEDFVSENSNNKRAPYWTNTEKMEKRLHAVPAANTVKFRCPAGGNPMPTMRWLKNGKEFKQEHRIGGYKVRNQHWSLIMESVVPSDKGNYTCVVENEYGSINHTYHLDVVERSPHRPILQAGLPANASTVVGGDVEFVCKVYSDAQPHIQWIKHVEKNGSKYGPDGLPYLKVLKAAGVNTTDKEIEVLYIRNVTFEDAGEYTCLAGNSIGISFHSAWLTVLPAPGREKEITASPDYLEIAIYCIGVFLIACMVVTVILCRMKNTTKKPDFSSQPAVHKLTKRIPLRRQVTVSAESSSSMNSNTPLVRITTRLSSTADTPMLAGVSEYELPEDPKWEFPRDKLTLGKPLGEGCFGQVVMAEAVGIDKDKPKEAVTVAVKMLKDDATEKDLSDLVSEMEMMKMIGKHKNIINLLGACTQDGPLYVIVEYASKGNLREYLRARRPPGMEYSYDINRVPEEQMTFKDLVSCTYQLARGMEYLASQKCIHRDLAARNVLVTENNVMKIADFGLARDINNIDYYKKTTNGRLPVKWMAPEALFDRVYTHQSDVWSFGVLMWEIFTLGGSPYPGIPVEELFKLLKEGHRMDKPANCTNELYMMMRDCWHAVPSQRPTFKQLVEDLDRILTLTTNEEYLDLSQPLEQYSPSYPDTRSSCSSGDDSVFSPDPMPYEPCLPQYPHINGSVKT

[14] = molecular target: RET (Homo sapiens (Human), UniProt P07949); experiment: kinase inhibition, Mobility-Shift Assay; format: biochemical; settings: 23 μM ATP
RET, sequence (P07949 29-1114): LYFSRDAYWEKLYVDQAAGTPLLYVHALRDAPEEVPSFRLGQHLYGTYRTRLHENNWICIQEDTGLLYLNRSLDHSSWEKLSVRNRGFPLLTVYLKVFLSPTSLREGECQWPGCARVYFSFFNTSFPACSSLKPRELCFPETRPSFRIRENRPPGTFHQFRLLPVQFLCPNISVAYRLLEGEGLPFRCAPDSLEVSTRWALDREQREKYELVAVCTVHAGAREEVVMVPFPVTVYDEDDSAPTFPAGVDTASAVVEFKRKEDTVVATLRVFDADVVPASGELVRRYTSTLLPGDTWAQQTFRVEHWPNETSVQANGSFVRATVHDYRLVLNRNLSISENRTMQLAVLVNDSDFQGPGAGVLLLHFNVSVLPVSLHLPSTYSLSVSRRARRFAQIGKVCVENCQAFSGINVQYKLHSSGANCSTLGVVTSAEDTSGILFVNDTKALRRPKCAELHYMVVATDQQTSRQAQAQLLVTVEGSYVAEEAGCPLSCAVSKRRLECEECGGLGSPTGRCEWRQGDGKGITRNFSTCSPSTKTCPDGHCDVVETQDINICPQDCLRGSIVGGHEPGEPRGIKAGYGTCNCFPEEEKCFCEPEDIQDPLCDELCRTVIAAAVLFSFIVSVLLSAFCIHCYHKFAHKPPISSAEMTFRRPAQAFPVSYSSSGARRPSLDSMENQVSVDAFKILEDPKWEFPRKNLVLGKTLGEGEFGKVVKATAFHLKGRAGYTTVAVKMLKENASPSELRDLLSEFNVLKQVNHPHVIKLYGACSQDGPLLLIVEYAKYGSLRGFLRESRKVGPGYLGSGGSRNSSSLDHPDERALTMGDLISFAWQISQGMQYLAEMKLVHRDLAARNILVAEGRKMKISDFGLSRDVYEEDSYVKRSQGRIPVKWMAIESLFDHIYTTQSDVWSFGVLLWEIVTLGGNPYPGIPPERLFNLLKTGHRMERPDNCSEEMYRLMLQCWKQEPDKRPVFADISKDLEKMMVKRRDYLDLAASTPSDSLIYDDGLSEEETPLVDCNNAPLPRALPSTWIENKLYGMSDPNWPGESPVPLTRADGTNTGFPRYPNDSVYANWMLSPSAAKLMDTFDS

[15] = MTD toxicity test in rats; format: in vivo; settings: 150 mg/kg; for MTD toxicity test, clinical outcome: rat, in vivo; for autopsy results of organs: rats, QD, 14 days, heart, liver, lungs, kidneys, stomach, intestines and other organs
[16] = tested on: BXPC3, SNU16, Hep3B 2.1-7 subcutaneous tumors; experiment: tumor suppression in nude mice with subcutaneously transplanted tumors; format: in vivo; settings: BXPC3, SNU16, Hep3B 2.1-7 transplants, within 3-4 weeks
Excerpt: These preferred compounds (e.g., IIIb-08, IIIb-09, IIIb-45, IIIb-50, IIIb-55, IIIb-56, IIIb-57, IIIb-58, IIIb-60, IIIb-61, IIIb-65) are currently being used to […] in nude mice subcutaneously transplanted with pancreatic cancer cell line (BXPC3), gastric cancer cell line (SNU16), liver cancer cell line (Hep3B 2.1-7) and other tumor suppressive effects have been observed in vivo, the tumor suppression rate of subcutaneous tumors in nude mice could reach 80-110% within 3-4 weeks. […] Therefore, the preferred compounds “IIIb-08, IIIb-09, IIIb-45, IIIb-50, IIIb-55, IIIb-56, IIIb-57, IIIb-58, IIIb-60, IIIb-61, IIIb-65” designed and synthesized by the present invention not only have better inhibitory activity, but also have better safety and drug-forming properties, which are valuable for further preclinical studies such as pharmacotoxicology and clinical trials.

Structure (SMILES)	IC50 [1]	IC50 [2]	IC50 [3]	IC50 [4]	IC50 [5]	IC50 [6]	IC50 [7]	IC50 [8]	IC50 [9]	IC50 [10]	IC50 [11]	IC50 [12]	IC50 [13]	IC50 [14]	MTD toxicity test, clinical outcome [15]	autopsy results of organs [15]	tumor suppression rate of subcutaneous tumors [16]
COc1cc2nccc(Oc3c(F)cc(NC(=O)NC4CC4)c(Cl)c3F)c2cc1C(=O)NCCF [IIIb-06]	> 10 µM	2.5 to 5 µM	2.5 to 5 µM	2.5 to 5 µM	> 10 µM	< 5 µM	5 to 10 µM	> 10 µM	18.7 µM	–	–	–	–	–	–	–	–
COc1cc2nccc(Oc3c(F)cc(NC(=O)NC4CC4)c(Cl)c3F)c2cc1C(=O)NCC(F)F [IIIb-08]	< 5 µM	< 2.5 µM	< 2.5 µM	< 2.5 µM	< 5 µM	< 5 µM	< 5 µM	5 to 10 µM	> 30 µM	< 0.005 µM	< 0.005 µM	< 0.005 µM	< 0.05 µM	< 0.005 µM	no abnormalities such as death	did not reveal any abnormal changes	80-110%
COc1cc2nccc(Oc3c(F)cc(NC(=O)NC4CC4)c(Cl)c3F)c2cc1C(=O)NCC(F)(F)F [IIIb-09]	< 5 µM	< 2.5 µM	< 2.5 µM	< 2.5 µM	< 5 µM	< 5 µM	< 5 µM	> 10 µM	> 30 µM	0.005 to 0.01 µM	< 0.005 µM	< 0.005 µM	0.05 to 0.1 µM	0.005 to 0.01 µM	no abnormalities such as death	did not reveal any abnormal changes	80-110%
COc1cc2nccc(Oc3c(F)cc(NC(=O)NC4CC4)c(Cl)c3F)c2cc1C(=O)NC[C@@H](O)CO [IIIb-21]	5 to 10 µM	< 2.5 µM	< 2.5 µM	2.5 to 5 µM	> 10 µM	> 10 µM	5 to 10 µM	> 10 µM	–	< 0.005 µM	< 0.005 µM	< 0.005 µM	0.05 to 0.1 µM	0.005 to 0.01 µM	–	–	–
COc1cc2nccc(Oc3c(F)cc(NC(=O)NC4CC4)c(Cl)c3F)c2cc1C(=O)NCC#N [IIIb-45]	< 5 µM	< 2.5 µM	< 2.5 µM	< 2.5 µM	< 5 µM	< 5 µM	< 5 µM	5 to 10 µM	> 30 µM	< 0.005 µM	< 0.005 µM	< 0.005 µM	< 0.05 µM	< 0.005 µM	no abnormalities such as death	did not reveal any abnormal changes	80-110%
COc1cc2nccc(Oc3c(F)cc(NC(=O)NC4CC4)c(Cl)c3F)c2cc1C(=O)NCCC#N [IIIb-50]	< 5 µM	< 2.5 µM	< 2.5 µM	< 2.5 µM	< 5 µM	< 5 µM	< 5 µM	5 to 10 µM	> 30 µM	< 0.005 µM	< 0.005 µM	< 0.005 µM	< 0.05 µM	< 0.005 µM	no abnormalities such as death	did not reveal any abnormal changes	80-110%
NC(=O)c1cc2c(Oc3c(F)cc(NC(=O)NC4CC4)c(Cl)c3F)ccnc2cc1OCCF [IIIb-55]	< 5 µM	< 2.5 µM	< 2.5 µM	< 2.5 µM	< 5 µM	< 5 µM	< 5 µM	5 to 10 µM	> 30 µM	< 0.005 µM	< 0.005 µM	< 0.005 µM	< 0.05 µM	0.005 to 0.01 µM	no abnormalities such as death	did not reveal any abnormal changes	80-110%
NC(=O)c1cc2c(Oc3c(F)cc(NC(=O)NC4CC4)c(Cl)c3F)ccnc2cc1OCC(F)F [IIIb-56]	< 5 µM	< 2.5 µM	< 2.5 µM	< 2.5 µM	< 5 µM	< 5 µM	< 5 µM	5 to 10 µM	> 30 µM	< 0.005 µM	< 0.005 µM	< 0.005 µM	< 0.05 µM	< 0.005 µM	no abnormalities such as death	did not reveal any abnormal changes	80-110%
NC(=O)c1cc2c(Oc3c(F)cc(NC(=O)NC4CC4)c(Cl)c3F)ccnc2cc1OCC(F)(F)F [IIIb-57]	< 5 µM	< 2.5 µM	< 2.5 µM	< 2.5 µM	< 5 µM	< 5 µM	< 5 µM	5 to 10 µM	> 30 µM	< 0.005 µM	< 0.005 µM	< 0.005 µM	< 0.05 µM	< 0.005 µM	no abnormalities such as death	did not reveal any abnormal changes	80-110%
N#CCOc1cc2nccc(Oc3c(F)cc(NC(=O)NC4CC4)c(Cl)c3F)c2cc1C(N)=O [IIIb-58]	< 5 µM	< 2.5 µM	< 2.5 µM	< 2.5 µM	< 5 µM	< 5 µM	< 5 µM	5 to 10 µM	> 30 µM	< 0.005 µM	< 0.005 µM	< 0.005 µM	< 0.05 µM	< 0.005 µM	no abnormalities such as death	did not reveal any abnormal changes	80-110%
NC(=O)c1cc2c(Oc3c(F)cc(NC(=O)NC4CC4)c(Cl)c3F)ccnc2cc1OCCO [IIIb-60]	< 5 µM	< 2.5 µM	< 2.5 µM	< 2.5 µM	< 5 µM	< 5 µM	< 5 µM	5 to 10 µM	> 30 µM	< 0.005 µM	< 0.005 µM	< 0.005 µM	< 0.05 µM	< 0.005 µM	no abnormalities such as death	did not reveal any abnormal changes	80-110%
NC(=O)c1cc2c(Oc3c(F)cc(NC(=O)NC4CC4)c(Cl)c3F)ccnc2cc1OCC1(N)CC1 [IIIb-61]	< 5 µM	< 2.5 µM	< 2.5 µM	< 2.5 µM	< 5 µM	< 5 µM	< 5 µM	5 to 10 µM	> 30 µM	< 0.005 µM	< 0.005 µM	< 0.005 µM	< 0.05 µM	< 0.005 µM	no abnormalities such as death	did not reveal any abnormal changes	80-110%
COc1cc2nccc(Oc3ccc(NC(=O)NC4CC4)c(Cl)c3)c2cc1C(N)=O [Lenvatinib, lenvatinib, reference compound]	> 10 µM	> 5 µM	> 5 µM	> 5 µM	5 to 10 µM	> 10 µM	5 to 10 µM	> 10 µM	–	0.005 to 0.01 µM	–	< 0.005 µM	0.05 to 0.1 µM	–	–	–	–
CNC(=O)c1cc(Oc2ccc(NC(=O)Nc3ccc(Cl)c(C(F)(F)F)c3)c(F)c2)ccn1 [Regorafenib, regorafenib, reference compound]	> 10 µM	> 5 µM	> 5 µM	> 5 µM	5 to 10 µM	> 10 µM	> 10 µM	> 10 µM	27 µM	–	–	–	–	–	–	–	–
